Test results taken from US10646600B2, “HER2 polypeptides useful for imaging and monitoring tumors and cancers” (GE HEALTHCARE LIMITED, priority 2013, dated 2020).

What was measured:
SKOV-3 cells = experiment: In vitro uptake assay in SKOV-3 cells (blocking, siRNA, drug treatment, specific activity); assay type: cell-based, human
Description: For siRNA-mediated HER2 knockdown, SKOV-3 cells were transfected with 25 nM scramble control (SCR; Dharmacon, Lafayette, Colo., ON-TARGETplus Non-targeting Pool, Cat. Nr: D-001810-10-05) or HER2-targeting siRNA (Invitrogen ERBB2 Silencer® Select Validated siRNA; Cat. Nr: 4457298) by reverse wet transfection with Lipofectamine RNAiMAX (Invitrogen) according to manufacturer's instructions. 3×10^5 cells were seeded in 12-well plates 48 h prior to uptake experiment. Target knockdown was verified by western blotting on cells that were transfected in parallel.
For all uptake studies in response to drug treatment, 2.5×10^5 SKOV-3 cells were seeded in complete medium 48 h prior to uptake experiments.
For baseline uptake in HER2 positive or negative lineages, 3×10^5 cells were seeded in complete media in 12-well plates (Corning, Tewksbury Mass.) and allowed to recover overnight. Cells were washed twice with serum-free medium and pulsed with 370 KBq in 500 μL serum-free medium for one h. For blocking studies, cells were co-incubated with tracer and 0.5 mg/mL cold unlabeled [^19F]GE-226[SEQ ID NO 1].
Cells were washed with PBS, trypsinized, neutralized with complete medium and centrifuged. The pellet was washed three times with PBS and lysed in 120 μL RIPA buffer (Sigma-Aldrich). The radioactivity of 100 μL lysate was counted on a Packard Cobra II gamma counter (Perkin Elmer). Radioactivity was normalized to applied radioactivity and protein content, which was determined for each sample by BCA assay (Pierce, Rockford, Ill.).

SKOV-3 xenografts = experiment: PET-CT imaging and kinetic modeling, SKOV-3 xenografts; assay type: in vivo, mice
Description: […] […] To investigate response to HSP90 inhibition, SKOV-3 xenograft-bearing mice were treated with 50 mg/kg NVP-AUY922 or equivalent volume of vehicle (˜5 μL/g body weight; 10% DMSO and 5% Tween-20 in PBS) q.d. i.p. for three days. 24 h after the last treatment, animals were used for PET imaging.
Mice were anesthetized through isoflurane inhalation and scanned on a dedicated small animal PET-CT scanner (Siemens Multimodality Inveon, Erlangen, Germany). Low dose CT scans were first acquired (80 kVp, 0.5 mA, 220 degree rotation, 600 ms per degree exposure time, 80 μm reconstruction pixel size) for PET attenuation correction and to obtain an anatomical reference. PET images were acquired following a bolus i.v. injection of approximately 3.7 MBq [^18F]GE-226 in the tail vein. Dynamic emission scans were acquired in list mode format over 60 minutes. The acquired data were sorted into 0.5-mm sinogram bins and 19 time frames for image reconstruction by filtered back projection (4×15 seconds and 4×60 seconds followed by 11×300 seconds). The Siemens Inveon Research Workplace software was used for visualization of radiotracer uptake. 30 to 60-minute cumulative images of the dynamic data were employed to define 3-dimensional (3D) regions of interest (ROI). Arterial input function was estimated by drawing ROIs over the center of the heart cavity using 0.25 to 2 minutes of cumulative images. The count densities were averaged for all ROIs at each time point to obtain time versus radioactivity curves (TAC). Tumor TACs were normalized to injected dose measured by a VDC-304 dose calibrator (Veenstra Instruments, Joure, Netherlands) and normalized uptake was expressed as percentage injected dose per mL tissue (NUV; % ID/mL). Normalized uptake of radiotracer at 60 minutes (NUV60) was used for comparisons. For qualitative image visualization, cumulative images of the dynamic data (30 to 60 min) were also iteratively reconstructed (OSEM3D).
Kinetic analysis of PET data was performed applying a standard two-tissue irreversible compartmental model to fit each tumor TAC with the corresponding image-derived plasma TAC as input function (IF) to estimate K1 (mL/cm^3/min), k2, (1/min) and k3 (1/min) and the blood vascular component Vb (mL blood/mL tissue; unitless). The irreversible uptake rate Ki (mL/cm^3/min) was computed as K1×k3/(k2+k3). To estimate the kinetic parameters the measured tumor TAC (tTAC) was modeled as tTAC(t)=(1−Vb)h(t)⊗IF(t)+VbIF(t) with h(t) indicating the unknown tissue impulse function and ⊗ the convolution operator. The parameter vector p=[K1, k2, k3, Vb] was estimated with the standard Weighted Non-Linear Least Squares (WNLLS) by minimizing the Weighted Residual Sum of Squares (WRSS) function

[^18F]GE-226: HER2-binding 18F-radiolabelled Affibody molecule ZHER2:2891
tracer uptake in comparison to freshly prepared tracer (SKOV-3 cells; incubation initiated 70 minutes later (specific activity)): 39.5±8.5%
tracer uptake in comparison to freshly prepared tracer (SKOV-3 cells; incubation initiated 140 minutes later (specific activity)): 24.9±3.8%
NUV60 (SKOV-3 xenografts; PET, 60 minutes): 18.7±2.4 % ID/mL
tumor tracer uptake at 2 h (SKOV-3 xenografts; SKOV-3 xenografts, 2 h versus 1 h): higher at 2 h
Ki (net irreversible uptake rate) (SKOV-3 xenografts; two-tissue irreversible compartmental model): 0.036±0.0065 mL/cm^3/min

[^19F]GE-226: cold unlabeled non-radioactive 19F analogue of the tracer, used for SPR and blocking
reduction of [18F]GE-226 uptake by blocking (SKOV-3 cells; co-incubation with 0.5 mg/mL cold [19F]GE-226, 60 minutes): 96.8±2.6%
[18F]GE-226 uptake compared to control cells (100±12%) (SKOV-3 cells; co-incubation with large excess of 19F analogue): 3.1±2.6%
NUV60 of [18F]GE-226 in blocked tumors (SKOV-3 xenografts; 30 mg/kg [19F]GE-226 i.v. 20 minutes prior to PET scan): 7.1±1.6 % ID/mL
